Test results: patent US9624214B2, “Amino-substituted imidazo[1,2-a]pyridinecarboxamides and their use” (BAYER PHARMA AKTIENGESELLSCHAFT, priority 2012, dated 2017)
Where a name gives a salt, the structure may show the parent alone.

Molecular target: T1, recombinant guanylate cyclase reporter cell line (Rattus norvegicus, UniProt P19686+P20595)
T1 construct: expressed in transfected cells
T1 sequence (P20595 1-619): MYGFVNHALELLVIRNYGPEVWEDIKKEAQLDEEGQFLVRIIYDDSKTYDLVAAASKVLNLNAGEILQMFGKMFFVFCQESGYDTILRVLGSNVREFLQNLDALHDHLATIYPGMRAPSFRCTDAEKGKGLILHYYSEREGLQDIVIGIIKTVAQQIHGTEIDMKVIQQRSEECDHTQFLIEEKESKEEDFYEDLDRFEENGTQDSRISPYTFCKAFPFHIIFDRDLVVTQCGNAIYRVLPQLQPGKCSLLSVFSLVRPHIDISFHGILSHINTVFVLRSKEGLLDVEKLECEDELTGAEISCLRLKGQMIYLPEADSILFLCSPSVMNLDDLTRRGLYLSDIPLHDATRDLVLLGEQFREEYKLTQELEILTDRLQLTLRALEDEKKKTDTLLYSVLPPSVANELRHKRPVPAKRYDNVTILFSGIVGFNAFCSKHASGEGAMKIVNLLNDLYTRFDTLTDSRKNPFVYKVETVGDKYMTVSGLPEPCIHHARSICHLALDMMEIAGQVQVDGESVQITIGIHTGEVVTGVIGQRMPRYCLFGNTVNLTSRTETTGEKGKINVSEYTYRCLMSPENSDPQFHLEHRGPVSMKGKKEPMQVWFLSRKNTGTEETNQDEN
T1 sequence (P19686 1-690): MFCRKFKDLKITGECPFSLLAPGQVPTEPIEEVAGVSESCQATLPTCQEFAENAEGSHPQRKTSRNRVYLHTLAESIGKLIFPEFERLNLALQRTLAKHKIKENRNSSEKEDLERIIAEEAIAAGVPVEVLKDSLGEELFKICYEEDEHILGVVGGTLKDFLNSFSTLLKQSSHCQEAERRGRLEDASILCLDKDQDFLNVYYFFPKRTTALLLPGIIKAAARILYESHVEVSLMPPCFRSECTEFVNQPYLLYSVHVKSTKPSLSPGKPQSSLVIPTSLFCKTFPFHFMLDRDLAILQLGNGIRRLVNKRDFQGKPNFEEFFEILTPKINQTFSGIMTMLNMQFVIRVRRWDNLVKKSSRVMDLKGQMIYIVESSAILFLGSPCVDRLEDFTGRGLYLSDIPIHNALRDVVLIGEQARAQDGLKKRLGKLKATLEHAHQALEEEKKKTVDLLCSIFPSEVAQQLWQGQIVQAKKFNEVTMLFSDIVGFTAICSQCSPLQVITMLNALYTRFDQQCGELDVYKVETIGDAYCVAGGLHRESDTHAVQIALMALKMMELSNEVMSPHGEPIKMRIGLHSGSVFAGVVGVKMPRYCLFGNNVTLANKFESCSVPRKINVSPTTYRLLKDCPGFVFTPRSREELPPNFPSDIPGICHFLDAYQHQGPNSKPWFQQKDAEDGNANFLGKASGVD
Experiment: B-2. Action on recombinant guanylate cyclase reporter cell line
Type: cell-based
Conditions: MEC = minimal effective concentration; in some cases mean values from individual determinations
Method: B-2. Action on Recombinant Guanylate Cyclase Reporter Cell Line
The cellular action of the compounds according to the invention is determined on a recombinant guanylate cyclase reporter cell line, as described in F. Wunder et al., Anal. Biochem. 339, 104-112 (2005).
Representative MEC values (MEC=minimal effective concentration) for the compounds according to the invention are shown in the following table (in some cases as mean values obtained from individual determinations): […]

Row | SMILES | MEC [µM]
1 | Cc1cc(OCc2c(F)cccc2F)c2nc(C)c(C(=O)NC3CCC(N)C3)n2c1 (mixture of isomers) [Example 308, N-(3-aminocyclopentyl)-8-[(2,6-difluorobenzyl)oxy]-2,6-dimethylimidazo[1,2-a]pyridine-3-carboxamide (Stereoisomer Mixture)] | 0.20
2 | Cc1cc(OCc2c(F)cccc2F)c2nc(C)c(C(=O)NC3CNCC3C(F)(F)F)n2c1 (mixture of isomers) [Example 313, 8-[(2,6-Difluorobenzyl)oxy]-2,6-dimethyl-N-[4-(trifluoromethyl)pyrrolidin-3-yl]imidazo[1,2-a]pyridine-3-carboxamide (Mixture of Stereoisomers)] | 0.30
3 | Cc1cc(OCc2c(F)cccc2F)c2nc(C)c(C(=O)NC3CC(N)C3)n2c1 (mixture of isomers) [Example 334, N-(3-aminocyclobutyl)-8-[(2,6-difluorobenzyl)oxy]-2,6-dimethylimidazo[1,2-a]pyridine-3-carboxamide (cis/trans Mixture)] | 1.00
4 | Cc1cc(OCc2c(F)cccc2F)c2nc(C)c(C(=O)NC3CC(C)(C)C3N)n2c1 (mixture of isomers) [Example 358, N-(2-amino-3,3-dimethylcyclobutyl)-8-[(2,6-difluorobenzyl)oxy]-2,6-dimethylimidazo[1,2-a]pyridine-3-carboxamide Formate (Isomer Mixture)] | 0.30
5 | Cc1nc2c(OCc3c(F)cccc3F)cc(Cl)cn2c1C(=O)NCC(C)N (racemic) [Example 23, rac-N-(2-aminopropyl)-6-chloro-8-[(2,6-difluorobenzyl)oxy]-2-methylimidazo[1,2-a]-pyridine-3-carboxamide] | 0.30
6 | Cc1nc2c(OCC3CCCCC3)cccn2c1C(=O)NC(CN)c1ccc(Cl)cc1 (racemic) [Example 43, rac-N-[2-Amino-1-(4-chlorophenyl)ethyl]-8-(cyclohexylmethoxy)-2-methylimidazo[1,2-a]-pyridine-3-carboxamide] | 1.00
7 | Cc1nc2c(OCC3CCCCC3)cccn2c1C(=O)NC(CN)c1ccccc1 (racemic) [Example 44, rac-N-(2-Amino-1-phenylethyl)-8-(cyclohexylmethoxy)-2-methylimidazo[1,2-a]pyridine-3-carboxamide] | 0.30
8 | Cc1nc2c(OCC3CCCCC3)cccn2c1C(=O)NC(CN)c1ccc(F)c(F)c1 (racemic) [Example 46, rac-N-[2-Amino-1-(3,4-difluorophenyl)ethyl]-8-(cyclohexylmethoxy)-2-methylimidazo[1,2-a]-pyridine-3-carboxamide] | 1.00
9 | Cc1nc2c(OCc3c(F)cccc3F)cc(Cl)cn2c1C(=O)NC1CNc2ccccc21 (racemic) [Example 49, rac-6-Chloro-8-[(2,6-difluorobenzyl)oxy]-N-(2,3-dihydro-1H-indol-3-yl)-2-methylimidazo[1,2-a]-pyridine-3-carboxamide] | 0.30
10 | Cc1nc2c(OCc3c(F)cccc3F)cccn2c1C(=O)NC1CCNc2ccccc21 (racemic) [Example 50, rac-8-[(2,6-Difluorobenzyl)oxy]-2-methyl-N-(1,2,3,4-tetrahydroquinolin-4-yl)imidazo[1,2-a]-pyridine-3-carboxamide] | 0.03
11 | Cc1cc(OCc2c(F)cccc2F)c2nc(C)c(C(=O)NC3CNc4ccccc4C3)n2c1 (racemic) [Example 76, rac-8-[(2,6-difluorobenzyl)oxy]-2,6-dimethyl-N-(1,2,3,4-tetrahydroquinolin-3-yl)imidazo[1,2-a]-pyridine-3-carboxamide] | 0.30

Continued, values first:

Row | MEC [µM] | SMILES
12 | 0.65 | Cc1nc2c(OCc3c(F)cccc3F)cccn2c1C(=O)NC(CN)CC(F)(F)F (racemic) [Example 2, rac-N-(1-Amino-4,4,4-trifluorobutan-2-yl)-8-[(2,6-difluorobenzyl)oxy]-2-methylimidazo[1,2-a]-pyridine-3-carboxamide]
13 | 1.00 | Cc1nc2c(OCc3c(F)cccc3F)cccn2c1C(=O)NC(CN)CC(C(F)(F)F)C(F)(F)F (racemic) [Example 5, rac-N-[1-amino-5,5,5-trifluoro-4-(trifluoromethyl)pentan-2-yl]-8-[(2,6-difluorobenzyl)oxy]-2-methylimidazo[1,2-a]-pyridine-3-carboxamide trifluoroacetate]
14 | 0.30 | Cc1nc2c(OCc3c(F)cccc3F)cccn2c1C(=O)NC(CN)c1ccc(F)cc1 (racemic) [Example 9, rac-N-[2-Amino-1-(4-fluorophenyl)ethyl]-8-[(2,6-difluorobenzyl)oxy]-2-methylimidazo[1,2-a]-pyridine-3-carboxamide]
15 | 0.30 | Cc1nc2c(OCc3c(F)cccc3F)cccn2c1C(=O)NC(CN)c1ccc(F)c(F)c1 (racemic) [Example 11, rac-N-[2-Amino-1-(3,4-difluorophenyl)ethyl]-8-[(2,6-difluorobenzyl)oxy]-2-methylimidazo[1,2-a]pyridine-3-carboxamide]
16 | 1.00 | Cc1nc2c(OCc3c(F)cccc3F)cccn2c1C(=O)NC(CN)c1ccc(Cl)cc1 (racemic) [Example 14, rac-N-[2-Amino-1-(4-chlorophenyl)ethyl]-8-[(2,6-difluorobenzyl)oxy]-2-methylimidazo[1,2-a]-pyridine-3-carboxamide Dihydrochloride]
17 | 0.30 | Cc1nc2c(OCc3c(F)cccc3F)cccn2c1C(=O)NC(CN)c1ccccc1 (racemic) [Example 16, rac-N-(2-Amino-1-phenylethyl)-8-[(2,6-difluorobenzyl)oxy]-2-methylimidazo[1,2-a]pyridine-3-carboxamide Dihydrochloride]
18 | 1.00 | Cc1nc2c(OCc3c(F)cccc3F)cccn2c1C(=O)NC(C)CN (racemic) [Example 17, rac-N-(1-aminopropan-2-yl)-8-[(2,6-difluorobenzyl)oxy]-2-methylimidazo[1,2-a]-pyridine-3-carboxamide dihydrochloride]
19 | 0.30 | Cc1nc2c(OCc3c(F)cccc3F)cccn2c1C(=O)NC1CNc2ccccc21 (racemic) [Example 28, rac-8-[(2,6-difluorobenzyl)oxy]-N-(2,3-dihydro-1H-indol-3-yl)-2-methylimidazo[1,2-a] pyridine-3-carboxamide]
20 | 1.00 | Cc1nc2c(OCc3c(F)cccc3F)cccn2c1C(=O)NCC(C)N (racemic) [Example 34, rac-N-(2-aminopropyl)-8-[(2,6-difluorobenzyl)-oxy]-2-methylimidazo[1,2-a]pyridine-3-carboxamide dihydrochloride]
21 | 1.00 | Cc1nc2c(OCc3c(F)cccc3F)cccn2c1C(=O)NC(CN)COc1ccc(F)cc1 (racemic) [Example 58, rac-N-[1-amino-3-(4-fluorophenoxy)propan-2-yl]-8-[(2,6-difluorobenzyl)oxy]-2-methylimidazo[1,2-a]pyridine-3-carboxamide]
22 | 3.00 | Cc1nc2c(OCc3c(F)cccc3F)cccn2c1C(=O)NC(CN)COc1ccccc1 (racemic) [Example 59, rac-N-(1-amino-3-phenoxypropan-2-yl)-8-[(2,6-difluorobenzyl)oxy]-2-methylimidazo[1,2-a]-pyridine-3-carboxamide dihydrochloride]
23 | 0.30 | Cc1nc2c(OCc3c(F)cccc3F)cccn2c1C(=O)NC(CN)COC(C)C (racemic) [Example 63, rac-N-(1-Amino-3-isopropoxypropan-2-yl)-8-[(2,6-difluorobenzyl)oxy]-2-methylimidazo[1,2-a]-pyridine-3-carboxamide]
24 | 1.00 | Cc1nc2c(OCc3c(F)cccc3F)cccn2c1C(=O)NC1CNc2ccccc2C1 (racemic) [Example 75, rac-8-[(2,6-Difluorobenzyl)oxy]-2-methyl-N-(1,2,3,4-tetrahydroquinolin-3-yl)imidazo[1,2-a]-pyridine-3-carboxamide]
